Source: the supplement of paper PMC4862054

How the values were obtained:
Details in all cases: incubation time: 72 h
BT-549 [1] = assay: drug sensitivity score (DSS), CellTox Green (DSS (AUC-based score)); higher = stronger drug effect (viability inhibition or cytotoxicity); extreme values may be limits of the assay
In short: (§1)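 Using 20 µl of cell suspension per well, breast cancer cell lines were seeded into 384-well plates pre-loaded with compound at 5 concentrations in 10-fold steps across a compound-specific 10,000-fold range. Incubation lasted 72 h, after which CellTox Green fluorescence at 485/520 nm and then CellTiter-Glo luminescence, following 10 min at room temperature, were recorded. Each plate was normalised to 0.1 % DMSO and a positive kill control before the drug sensitivity score was derived from the area under the fitted dose-response curve.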

MFM-223 [2] = assay: as above
In short: as §1

HDQ-P1 [3] = assay: as above
In short: as §1

HCC1937 [4] = assay: as above
In short: as §1

MDA-MB-453 [5] = assay: as above
In short: as §1

MDA-MB-436 = assay: drug sensitivity score (DSS), CellTiter-Glo (DSS (AUC-based score)); higher = stronger drug effect (viability inhibition or cytotoxicity); extreme values may be limits of the assay
In short: as §1

HCC1599 = assay: as above
In short: as §1

DU-4475 = assay: as above
In short: as §1

BT-549 [6] = assay: as above
In short: as §1

HCC1143 = assay: as above
In short: as §1

MDA-MB-231 = assay: as above
In short: as §1

CAL-85-1 = assay: as above
In short: as §1

CAL-120 = assay: as above
In short: as §1

MFM-223 [7] = assay: as above
In short: as §1

BT-474 = assay: as above
In short: as §1

MCF-10A = assay: as above
In short: as §1

HDQ-P1 [8] = assay: as above
In short: as §1

CAL-148 = assay: as above
In short: as §1

CAL-51 = assay: as above
In short: as §1

HCC1937 [9] = assay: as above
In short: as §1

Hs578T = assay: as above
In short: as §1

MDA-MB-468 = assay: as above
In short: as §1

SK-BR-3 = assay: as above
In short: as §1

MDA-MB-453 [10] = assay: as above
In short: as §1

Measured: drug sensitivity score

CCc1c(C(=O)C(N)=O)c2c(OCC(=O)O)cccc2n1Cc1ccccc1 [Varespladib]
0: all assays above
